Reference: patent US11576383B2, “Pesticide composition containing thidiazuron and polyglutamic acid” (JIANGSU HUIFENG BIO AGRICULTURE CO., LTD., priority 2017, dated 2023)

What was measured:
Format in all cases: in vivo
maize = assay: Field comprehensive test of mixing thidiazuron and polyglutamic acid on growth regulation and production increase of maize; details: 40 a.i. mg/kg
Description: (§1) Thidiazuron and polyglutamic acid were diluted with acetone according to a certain concentration and were sprayed to stems and leaves of crops, and influence of concentrations on growth of crops is assayed in the field, including comprehensive evaluation on plant height, spike number, setting percentage, disease-resistant condition, yield condition and the like of the crops. Plant height control rate=(plant height of a clean water control group-processed plant height)/plant height of the clean water control group*100% Spike number increase ratio=(processed plant spike number-plant spike number of a clean water control group)/plant spike number of the clean water control group*100% Setting percentage=filled grain number per spike/total grain number per spike*100% Prevention effect=(disease index of a clean water control group-processed disease index)/disease index of the clean water control group*100% Yield per mu increase ratio=(processed yield per mu-yield per mu of a clean water control group)/yield per mu of the clean water control group*100%
(§2) 1. Field Comprehensive Test of Mixing Thidiazuron and Polyglutamic Acid on Growth Regulation and Disease Resistance and Production Increase of Maize Crops
(§3) Sorghum variety: Suyu 23.
Pesticide application stage: a big horn stage of maize and a blooming stage of maize in which diseases such as Southern corn leaf blight are prone to occur.
Pesticide application number of times: 2 times, 6 days asan interval. The examples of the preparation of the present invention are sprayed for three repeated times, and the result is the mean value.

[1] = tested on: banded sclerotial blight of indica; assay: Disease control of banded sclerotial blight in the indica comprehensive assay; details: 50 a.i. mg/kg
Description: (§4) 1. Comprehensive Assay Test of Compounding Thidiazuron and Polyglutamic Acid on Growth Regulation of Indica
as §1

indica = assay: Comprehensive assay of compounding thidiazuron and polyglutamic acid on growth regulation of indica (field, stem and leaf spraying); details: 50 a.i. mg/kg
Description: as §4, §1

[2] = tested on: Southern corn leaf blight; assay: Prevention of Southern corn leaf blight in the maize field comprehensive test; details: 40 a.i. mg/kg
Description: as §1, §2, §3
Pesticide application stage: a big horn stage of maize and a blooming stage of maize in which diseases such as Southern corn leaf blight are prone to occur. […]

O=C(Nc1ccccc1)Nc1cnns1 [Thidiazuron]
Stem Diameter (maize): 2.50 cm
Thousand seed weight (maize): 249.0 g
Plant Height (maize; applied 2 times, 6 days interval, mean of three repeats): 129.0 cm
Control Rate (plant height) (maize; vs clean water control group): 5.4%
Increase Ratio (output, unit yield per mu) (maize; vs clean water control group): 6.1%
Increase Ratio (stem diameter) (maize; vs clean water control group): 5.4%
Increase Ratio (thousand seed weight) (maize; vs clean water control group): 5.4%
Output (maize; yield per mu): 637.9 667M^2
Prevention Effect ([1]; banded sclerotial blight of indica, vs clean water control group): 49.8%
Disease Index of Banded Sclerotial Blight ([1]; indica): 14.8
Spike Number of Single Plant (indica): 18.1 grains
Total Grain Number of Spike (indica): 145.7 grains
filled grain number per spike (indica): 132.2 grains
Setting Percentage (indica; filled grain number per spike/total grain number per spike): 90.7%
Plant Height (indica; stem and leaf spraying 2 times, 8 days interval, investigated at later grouting stage): 121.2 cm
Plant Height Control Rate (indica; vs clean water control group): 5.0%
Production Increase Ratio (yield per mu increase ratio) (indica; vs clean water control group): 5.5%
Spike Number Increase Ratio (indica; vs clean water control group): 4.0%
Output (indica; yield per mu): 537.5 667 M^2
Southern corn leaf blight ([2]; disease index): 14.74
Prevention Effect ([2]; Southern corn leaf blight, vs clean water control group): 51.11%
